Test system: 556581-035-R-J1-PDC complex spheroid viability
Experiment: Anticancer human tumor 556581-035-R-J1-PDC patient-derived ovarian carcinoma cell line growth inhibition
Settings: for IC50: curve of first compound; for viability, T/C: stronger effect = lower value; active = viability on the fitted dose curve at most 10% of control; inactive = the rest
Source text: Multicellular complex tumor spheroid response to LSD1 Inhibitor Iadademstat in combination with a variety of drugs and investigational agents in selected tumor cell lines
The current study was undertaken to assess response to LSD1 inhibitors in combination with standard-of-care drugs and investigational agents in solid tumor complex spheroid models as well as in the K-562 leukemia. Complex spheroids include a stromal component modeled by human endothelial cells (HUVEC) and fibroblasts modeled by human mesenchymal stem cells (MSCs). The concentration ranges selected for each drug and investigational agent were based upon clinically achievable concentrations if the clinical Cmax of the agent was known.
Compounds. The drugs and investigational agents used in this study are listed on Table 1. All of the agents used, including staurosporine (NSC755774) and gemcitabine (NSC613327), were obtained from the Developmental Therapeutics Program, NCI. FDA-approved anticancer drugs are available from the NCI at http://dtp.nci.nih.gov/branches/dscb/oncology_drugset_explanation.html. Drugs and investigational agents were >95% pure by proton nuclear magnetic resonance (NMR) and liquid chromatography/mass spectrometry (LC/MS). Stock solutions were prepared at 400x in DMSO, stored at -70 degrees C, and diluted in fresh medium prior to their use. The final concentration of DMSO in cell culture wells never exceeded 0.25% (v/v). The FDA-approved anticancer drug set is available from the Developmental Therapeutics Program at https://dtp.cancer.gov/organization/dscb/obtaining/available_plates.htm. All drugs and investigational agents were tested over a range starting from a high concentration at or near the clinical Cmax and decreasing in half-log increments. If the clinical Cmax for an agent had not been determined, the highest concentration tested was 10 microM.
Cell Lines. The patient-derived cancer cell (PDC) lines: 292921-168-R-J2-PDC, K24384-001-R-PDC, and 521955-158-R2-J5-PDC pancreatic carcinomas, 556581-035-R-J1 ovarian carcinoma, 324938-238-R-J1-PDC, 855422-203-R-J1-PDC and 883617-216-R-J1-PDC urothelial bladder carcinomas, 743489-274-T-PDC renal cell carcinoma, 138582-R-J1 Merkel cell tumor, K60290-347-R-J1 and K57222-313-R-J1-PDC glioblastomas, 653999-131-R-J2-PDC, LG0703-F948-PDC, and 349418-098-R-PDC non-small cell lung carcinomas, 885512-296-R-J2-PDC, 171881-019-R-J1-PDC breast carcinomas and 186277-243-T-J2-PDC and 233499-124-R-J2-PDC colon carcinomas were obtained from the NCI Patient-Derived Models Repository (PDMR, https://pdmr.cancer.gov). The established cell lines NCI/ADR-RES (RRID:CVCL_14520 and OVCAR-5 (RRID:CVCL_1628) ovarian carcinomas, 786-O (RRID:CVCL_1051) and A498 (RRID:CVCL_A498) renal cell carcinoma, NCI-H211 (ATCC, cat. CRL-5824; RRID:CVCL_1529), NCI-H196 (ATCC, cat. CRL-5823, RRID:CVCL_1509), SW 1271 (ATCC, cat. CRL-2177, RRID:CVCL_1716) and NCI-H1876 (ATCC, cat. CRL-5902, RRID:CVCL_1503) small cell lung carcinomas, MDA-MB-231 (RRID:CVCL_0062) and MDA-MB-468 (RRID:CVCL_0419)breast carcinomas (10-12). Pooled donor human umbilical vein endothelial cells (HUVEC, Lonza, cat. CC-2519) and human mesenchymal stem cells (hMSC, Lonza, cat. PT-2501) were purchased from Lonza (Walkersville, MD).
Cell Culture. All cells were maintained in an incubator at 37 degrees C and 5% CO2 with 95% humidity. The PDC lines were cultured according to standard operating procedures established by the NCI PDMR (https://pdmr.cancer.gov). Briefly all PDCs were thawed and cultured in Matrigel-coated flasks prepared with a working solution of 1X Ham's F-12 nutrient mix, without supplementation (Invitrogen, Waltham, MA, cat. 11765054), 100 U/mL penicillin-streptomycin (Invitrogen, cat. 15140122), and 2.5% Matrigel (Corning Inc., Corning, NY, cat. 354248) for the first three passages. […]

[1] = second compound 0.1 µM, first compound 0.000316 µM
[2] = second compound 0.1 µM, first compound 0.001 µM
[3] = second compound 0.1 µM, first compound 0.00316 µM
[4] = second compound 0.1 µM, first compound 0.01 µM
[5] = second compound 0.1 µM, first compound 0.0316 µM
[6] = second compound 0.1 µM, first compound 0.1 µM
[7] = second compound 0.316 µM, first compound 0.000316 µM
[8] = second compound 0.316 µM, first compound 0.001 µM
[9] = second compound 0.316 µM, first compound 0.00316 µM
[10] = second compound 0.316 µM, first compound 0.01 µM
[11] = second compound 0.316 µM, first compound 0.0316 µM
[12] = second compound 0.316 µM, first compound 0.1 µM
[13] = second compound 1 µM, first compound 0.000316 µM
[14] = second compound 1 µM, first compound 0.001 µM
[15] = second compound 1 µM, first compound 0.00316 µM
[16] = second compound 1 µM, first compound 0.01 µM
[17] = second compound 1 µM, first compound 0.0316 µM
[18] = second compound 1 µM, first compound 0.1 µM
[19] = second compound 3.16 µM, first compound 0.000316 µM
[20] = second compound 3.16 µM, first compound 0.001 µM
[21] = second compound 3.16 µM, first compound 0.00316 µM
[22] = second compound 3.16 µM, first compound 0.01 µM
[23] = second compound 3.16 µM, first compound 0.0316 µM
[24] = second compound 3.16 µM, first compound 0.1 µM
[25] = second compound 10 µM, first compound 0.000316 µM
[26] = second compound 10 µM, first compound 0.001 µM
[27] = second compound 10 µM, first compound 0.00316 µM
[28] = second compound 10 µM, first compound 0.01 µM
[29] = second compound 10 µM, first compound 0.0316 µM
[30] = second compound 10 µM, first compound 0.1 µM
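Note: spheroids exposed to agents for seven days.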

CC(C)CC(NC(=O)C(Cc1ccccc1)NC(=O)c1cnccn1)B(O)O (stereo not given) + NC1CC1c1ccc(-c2cccc(O)c2)cc1
active: viability, T/C [1] 1.61% | viability, T/C [2] 0.66% | viability, T/C [3] 0.12% | viability, T/C [4] 0.19% | viability, T/C [5] 0.14% | viability, T/C [6] 0.26% | viability, T/C [7] 3.63% | viability, T/C [8] 0.1% | viability, T/C [9] 0.35% | viability, T/C [10] 0.1% | viability, T/C [11] 0.09% | viability, T/C [12] 0.17% | viability, T/C [13] 1.67% | viability, T/C [14] 0.11% | viability, T/C [15] 0.08% | viability, T/C [16] 0.1% | viability, T/C [17] 0.1% | viability, T/C [18] 0.2% | viability, T/C [19] 1.12% | viability, T/C [20] 0.11% | viability, T/C [21] 0.11% | viability, T/C [22] 0.08% | viability, T/C [23] 0.09% | viability, T/C [24] 0.31% | viability, T/C [25] 1.94% | viability, T/C [26] 0.27% | viability, T/C [27] 0.22% | viability, T/C [28] 5.89% | viability, T/C [29] 0.35% | viability, T/C [30] 0.86%
< 0.316 nM: IC50 (second compound 0.1 µM) | IC50 (second compound 0.316 µM) | IC50 (second compound 1 µM) | IC50 (second compound 3.16 µM) | IC50 (second compound 10 µM)

CC(C)CC(NC(=O)CNC(=O)c1cc(Cl)ccc1Cl)B1OC(=O)CC(CC(=O)O)(C(=O)O)O1 (stereo not given) + NC1CC1c1ccc(-c2cccc(O)c2)cc1
2.44 nM: IC50 (second compound 0.1 µM)
active: viability, T/C [4] 2.07% | viability, T/C [5] 0.71% | viability, T/C [6] 0.3% | viability, T/C [10] 1.79% | viability, T/C [11] 1.03% | viability, T/C [12] 0.98% | viability, T/C [16] 0.78% | viability, T/C [17] 0.36% | viability, T/C [18] 0.22% | viability, T/C [22] 0.89% | viability, T/C [23] 0.65% | viability, T/C [24] 0.31% | viability, T/C [28] 3.21% | viability, T/C [29] 0.15% | viability, T/C [30] 1.14%
2.73 nM: IC50 (second compound 10 µM)
2.84 nM: IC50 (second compound 0.316 µM)
2.67 nM: IC50 (second compound 3.16 µM)
2.78 nM: IC50 (second compound 1 µM)
inactive: viability, T/C [1] 85.1% | viability, T/C [2] 95.6% | viability, T/C [3] 38.2% | viability, T/C [7] 85.4% | viability, T/C [8] 96% | viability, T/C [9] 45.8% | viability, T/C [13] 91% | viability, T/C [14] 95% | viability, T/C [15] 44.5% | viability, T/C [19] 82.8% | viability, T/C [20] 85% | viability, T/C [21] 44.1% | viability, T/C [25] 85.4% | viability, T/C [26] 74.8% | viability, T/C [27] 47.1%
